Test results as given in patent publication US20160010068A1, “FUSION POLYNUCLEOTIDES AND FUSION POLYPEPTIDES ASSOCIATED WITH CANCER AND PARTICULARLY MELANOMA AND THEIR USES AS THERAPEUTIC AND DIAGNOSTIC TARGETS” (priority 2013, published 2016).

What was measured:
[1] = target: T1, PWWP2A-ROS1 fusion (Homo sapiens, UniProt P08922); assay: Western blot of signaling in melan-a cells expressing the PWWP2A-ROS1 fusion, with crizotinib; format: cell-based; conditions: representative of three independent experiments
T1 construct: exon 1 of PWWP2A is fused with exon 36-43 of ROS1, which contains the tyrosine kinase domain; expressed in transfected cells; host or cells: melan-a cells (immortalized, non-tumorigenic mouse melanocytes), stably transduced with lentivirus (pLenti6.3/TO/V5-Dest)
Description: FIG. 3 depicts ROS1 fusions. […] Scale bar, […]. Scale bar magnification, 50 mm. […] Scale bar, […]. Scale bar magnification, 50 mm. […] Scale bar, 10 mm. (c) Illustration of the PWWP2A-ROS1 kinase fusion. ROS1 is located on […], and PWWP2A on chromosome 5q33. Owing to genomic rearrangements, exon 1 of PWWP2A is fused with exon 36-43 of ROS1, which contains the tyrosine kinase domain. […] The indicated protein weight markers in kDa are estimated from molecular weight standards.
FIG. 8 depicts full western blots of FIG. 3d. (a) p-ROS1, (b) t-ROS1, (c) p-AKT, (d) t-AKT, (e) p-ERK, (f) t-ERK, (g) p-S6, (h) t-S6, (i) p-SHP2, (j) t-SHP2, (k) Hsp60. All molecular weight standards are indicated in kDa.

[2] = target: T1, PWWP2A-ROS1 fusion; assay: Western blot of phosphorylation in melan-a cells expressing PWWP2A-ROS1 fusion construct; format: cell-based, mouse; conditions: FIG. 3d
[3] = test system: melanoma; conditions: twice daily; phase I trial; cited from earlier work

T1 sequence (P08922 with tags, fused parts or gaps): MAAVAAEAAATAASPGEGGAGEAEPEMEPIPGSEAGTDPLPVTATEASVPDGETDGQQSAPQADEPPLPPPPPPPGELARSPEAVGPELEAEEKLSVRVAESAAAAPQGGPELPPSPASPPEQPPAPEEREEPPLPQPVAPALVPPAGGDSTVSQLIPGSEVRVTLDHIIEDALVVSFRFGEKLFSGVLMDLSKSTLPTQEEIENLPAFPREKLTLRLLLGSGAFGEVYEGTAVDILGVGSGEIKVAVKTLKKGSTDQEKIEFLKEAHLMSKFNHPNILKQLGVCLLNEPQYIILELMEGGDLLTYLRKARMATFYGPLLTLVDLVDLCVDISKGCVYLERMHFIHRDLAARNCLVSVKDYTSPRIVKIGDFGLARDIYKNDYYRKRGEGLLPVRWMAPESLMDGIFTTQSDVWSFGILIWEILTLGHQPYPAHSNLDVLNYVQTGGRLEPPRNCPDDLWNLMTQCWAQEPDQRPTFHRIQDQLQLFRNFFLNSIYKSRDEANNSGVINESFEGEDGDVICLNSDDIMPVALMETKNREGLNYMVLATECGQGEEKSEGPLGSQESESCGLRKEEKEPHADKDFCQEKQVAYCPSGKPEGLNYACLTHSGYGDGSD

Row | SMILES | p-AKT [1] | p-S6 [1] | p-SHP2 [1] | phosphorylation of the chimeric PWWP2A-ROS1 fusion protein [1] | phosphorylation of ERK [2] | phosphorylation of PWWP2A-ROS1, AKT, S6 and SHP2 [2] | maximum tolerated dose [3] [mg]
1 | C[C@@H](Oc1cc(-c2cnn(C3CCNCC3)c2)cnc1N)c1c(Cl)ccc(F)c1Cl [Crizotinib, crizotinib] | inhibited at least partially | inhibited at least partially | inhibited at least partially | inhibited at least partially | not | at least partially inhibited | 
2 | CCCS(=O)(=O)Nc1ccc(F)c(C(=O)c2c[nH]c3ncc(-c4ccc(Cl)cc4)cc23)c1F [vemurafenib] |  |  |  |  |  |  | 60
